Laboratory results reported in PubChem BioAssay (NCI).
Values joined by “and” are separate entries in the source; they are usually repeats but may differ in a detail not shown here. Equal values may be shown once.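 Results reflect a 48-hour exposure of cells in 96-well plates to compound at five concentrations. GI50: concentration for 50% inhibition of growth. Definition used: TGI = concentration required for complete inhibition of growth.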

Tests used:
Assay in all cases: NCI tumour cell line growth inhibition, 48 h
[1] = test system: OVCAR-3 ovarian
[2] = test system: NCI-H460 lung
[3] = test system: OVCAR-8 ovarian
[4] = test system: K-562 leukemia
[5] = test system: TK-10 renal
[6] = test system: DU-145 prostate
[7] = test system: SK-MEL-2 melanoma

| Compound | GI50 [1] | TGI [1] | GI50 [2] | TGI [2] | GI50 [3] | TGI [3] | GI50 [4] | TGI [4] | TGI [5] | GI50 [6] | TGI [6] | GI50 [7] | TGI [7] | GI50 [5] |
| --- | --- | --- | --- | --- | --- | --- | --- | --- | --- | --- | --- | --- | --- | --- |
| CC(C)N=c1cc2n(-c3ccc(Cl)cc3)c3ccccc3nc-2cc1Nc1ccc(Cl)cc1 | 1.21 µM | 2.76 µM | 0.778 µM | > 50 µM | 2.79 µM | > 100 µM | 2.24 µM | > 100 µM | > 100 µM | 3.14 µM and 3.41 µM | > 100 µM |  |  |  |
| Cc1cc(N/N=C/c2nc(-c3ccc(Br)cc3)oc2C)c2cc(Br)ccc2n1 | 2.08 µM | 4.25 µM |  |  | 2.43 µM | 6.66 µM |  |  | 3.93 µM | 3.81 µM | 13.9 µM | 25.6 µM | 68.1 µM | 1.97 µM |
| Nc1nc(SN=Nc2ccc(S(N)(=O)=O)cc2)c2[nH]cnc2n1 | 0.511 µM | 7.93 µM | 0.384 µM | 13 µM | 0.419 µM | > 100 µM | 0.299 µM | > 100 µM | 23.6 µM | 0.469 µM | > 94.8 µM | 1.24 µM | > 100 µM | 0.448 µM |
| CCc1ccccc1NC(=O)c1sc2nc3c(cc2c1N)C(=O)CCC3 | 0.383 µM | 16 µM | 0.367 µM | > 100 µM | 2.88 µM | > 100 µM | 0.275 µM | > 100 µM | > 100 µM | 0.589 µM | > 100 µM |  |  | 23.2 µM |
| CC(=O)/C=C/c1ccc(C#Cc2ccccc2)s1 | 15.5 µM | 29.6 µM | 16.2 µM | 33.3 µM | 19 µM | 57.3 µM | 19.8 µM | 56.4 µM | 32.9 µM | 10.8 µM | 24 µM | 20.5 µM | 35.4 µM | 16.8 µM |
| COc1cccc(/C(COc2ccc3c(c2)oc(=O)c2cc(OC)ccc23)=N/O)c1 | 4.18 µM | > 100 µM | 3.81 µM | > 100 µM | 9.77 µM | > 100 µM | 4.43 µM | > 100 µM | > 100 µM | 26 µM | > 100 µM | 6.62 µM | > 100 µM | 16.5 µM |
| N#C/C(=C/N1CCN(C(=O)c2ccco2)C1=S)C(=O)c1ccccc1 | 18.2 µM | 57.2 µM | 9.52 µM | > 100 µM | 25.4 µM | > 100 µM | 5.51 µM | > 100 µM | 28.8 µM | 5.01 µM | > 100 µM | 3.68 µM | 15.8 µM | 10.5 µM |
| COc1ccc(-c2c[nH]c(=S)n2-c2ccc(OC)cc2)cc1 | > 50 µM | > 50 µM | > 50 µM | > 50 µM | > 50 µM | > 50 µM | > 50 µM | > 50 µM | > 50 µM | > 50 µM | > 50 µM | > 50 µM | > 50 µM | > 50 µM |
| Cc1ccc(S(=O)(=O)NCCNc2nccc(-c3c(-c4ccc(F)cc4)nc4sccn34)n2)cc1 |  |  | 3.5 µM | > 100 µM | 5 µM | 53.8 µM |  |  | 42.6 µM |  |  | 7.55 µM | 38.2 µM | 7.8 µM |
